Data set [1] addresses T1, Cell division cycle 7-related protein kinase (Homo sapiens, UniProt O00311). Put plainly: Inhibition of CDC7 in human HCT116 cells assessed as MCM2 phosphorylation. The data set is classed as cell-based, HCT-116.
Data set [2] is filed under the species Homo sapiens. Put plainly: Selectivity ratio of IC50 for CDK2 (unknown origin) to IC50 for CDC7 (unknown origin).
In data set [3] the target is T1, Cell division cycle 7-related protein kinase. The data set can be described thus: Inhibition of CDC7 (unknown origin).
The nature of data set [4]: Intrinsic clearance in rat liver microsomes. The class given is ADME, Microsome. To be noted: read-out: CLH. Background: Liver microsomes are a subcellular fraction often used to study metabolism.
Data set [5] can be described thus: Intrinsic clearance in human liver microsomes. The data set is classed as ADME, Microsome. As to conditions: read-out: CLH.
The target in data set [6] is Cyclin-dependent kinase 2 (Homo sapiens, UniProt P24941). The data set can be described thus: Inhibition of CDK2 (unknown origin).

Consider 35 compounds from ChEMBL document CHEMBL2346586, “N-substituted azaindoles as potent inhibitors of Cdc7 kinase” (Bioorg Med Chem Lett, 2013).

pIC50: −log10 of the molar value.

For orientation: pIC50 means the IC50 on a negative log10 scale, so that one unit is a factor of ten.

T1 sequence (O00311 whole entry): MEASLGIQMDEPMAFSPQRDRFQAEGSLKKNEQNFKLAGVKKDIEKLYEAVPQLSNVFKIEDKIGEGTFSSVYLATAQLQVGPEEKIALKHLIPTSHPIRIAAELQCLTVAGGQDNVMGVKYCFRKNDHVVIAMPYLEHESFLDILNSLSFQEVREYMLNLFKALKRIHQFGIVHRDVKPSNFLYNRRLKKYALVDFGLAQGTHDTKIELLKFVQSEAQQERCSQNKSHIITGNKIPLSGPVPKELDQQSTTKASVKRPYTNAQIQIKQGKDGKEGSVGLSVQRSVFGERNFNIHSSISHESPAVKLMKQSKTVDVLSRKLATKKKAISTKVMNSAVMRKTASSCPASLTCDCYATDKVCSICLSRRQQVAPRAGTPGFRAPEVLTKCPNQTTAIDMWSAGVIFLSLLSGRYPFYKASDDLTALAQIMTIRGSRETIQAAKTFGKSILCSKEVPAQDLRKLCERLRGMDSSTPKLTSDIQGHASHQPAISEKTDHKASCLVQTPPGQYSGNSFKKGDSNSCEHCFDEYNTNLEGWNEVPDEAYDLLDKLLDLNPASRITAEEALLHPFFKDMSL

For `Nc1nccc(-n2cc(-c3cccnc3Cl)c3cnc(Cl)cc32)n1`, the figures for the pIC50 in data set [1], in data set [3] and in data set [6] were 5.64, 7.52 and below 4.08, respectively. In addition, the Ratio IC50 in data set [2] was above 2700. Besides, the microsomal CLint in data set [4] amounted to 102 µL/min/mg; in data set [5] it was 30 µL/min/mg.
As for `N#Cc1ccc2ccn(-c3nccc(N)n3)c2c1`, the figures for the pIC50 in data set [3] and in data set [6] were 5.06 and below 4.54, respectively.
`Nc1nccc(-n2cc(-c3ccc(Cl)cc3)c3cnccc32)n1`: the pIC50 in data set [3] is 6.48; in data set [6] it was 7.22.
For `Nc1nccc(-n2ccc3ccc([N+](=O)[O-])cc32)n1`, in that order: 7.09 and below 4.51.
For `Nc1nccc(-n2cc(-c3ccncc3)c3cnccc32)n1` the same measures were 6.60 and 6.80.
For the compound `Nc1nccc(-n2ccc3ccccc32)n1`, the figures for the pIC50 in data set [1], in data set [3] and in data set [6] were below 4.30, 5.33 and 4.55, respectively. Further, the microsomal CLint stood at 375 µL/min/mg in data set [4] and 387 µL/min/mg in data set [5].
Consider `Nc1nccc(-n2cc(-c3ccccc3)c3cnccc32)n1`, for which the Ratio IC50 in data set [2] came to 3. The pIC50 in data set [3] was 6.98; in data set [6] it was 6.51.
Turning to `N#Cc1cnc2ccn(-c3ccnc(N)n3)c2c1`, the pIC50 in data set [3] was 5.28; in data set [6], below 4.08. The microsomal CLint in data set [4] amounted to 64 µL/min/mg; in data set [5], 108 µL/min/mg.
For `Nc1nccc(-n2ccc3ncccc32)n1`, in that order: 4.90, 4.68, 50 µL/min/mg and 60 µL/min/mg.
As to `Nc1nccc(-n2ccc3cnccc32)n1`, the pIC50 in data set [3] is 6.01; in data set [6], 5.43. In addition, the microsomal CLint was 101 µL/min/mg in data set [4] and 62 µL/min/mg in data set [5].
As to `Nc1nccc(-n2ccc3ccc(Cl)cc32)n1`, the Ratio IC50 in data set [2] came out at 56. The values for the pIC50 in data set [3] and in data set [6] were 7.18 and 5.43, respectively.
For `Nc1nccc(-n2cc(-c3cccc(Cl)c3)c3cnccc32)n1`, in that order: above 500, 6.80 and below 4.08.
In the case of `N#Cc1ccc2ccn(-c3ccnc(N)c3)c2c1`, the negative-log IC50 (pIC50) in data set [1] was below 4.30; in data set [3] it was 5.05; in data set [6], 4.41. Further, the microsomal CLint is 122 µL/min/mg in data set [4] and 201 µL/min/mg in data set [5].
With `N#Cc1cc2c(ccn2-c2ccnc(N)n2)cn1`, the pIC50 in data set [3] is 5.91; in data set [6], below 4.36. Moreover, the microsomal CLint amounted to 49 µL/min/mg in data set [4] and 94 µL/min/mg in data set [5].
As to `CNc1nccc(-n2ccc3ccc(C#N)cc32)n1`, the pIC50 was 7.60 in data set [3] and 5.57 in data set [6].
Regarding `Nc1nccc(-n2ccc3ccc(C(F)(F)F)cc32)n1`, the pIC50 is 5.96 in data set [3] and 4.77 in data set [6].
As for `N#Cc1ccc2ccn(-c3cc(N)ncn3)c2n1`, the pIC50 is 5.86 in data set [1], 8.05 in data set [3] and below 4.08 in data set [6]. In addition, the figures for the microsomal CLint in data set [4] and in data set [5] were 46 µL/min/mg and 34 µL/min/mg, respectively.
In the case of `Nc1nccc(-n2cc(-c3cccnc3)c3cnccc32)n1`, the Ratio IC50 in data set [2] worked out at 7. Also, the pIC50 was 6.80 in data set [3] and 5.96 in data set [6].
Consider `Nc1nccc(-n2cc(-c3ccccc3Cl)c3cnccc32)n1`, for which the pIC50 in data set [3] was 7.96; in data set [6] it was 6.96.
For `Nc1nccc(-n2cc(C3=CCOCC3)c3cnccc32)n1` the same measures were 6.80 and 6.80.
For `N#Cc1ccc2ccn(-c3ccncn3)c2c1` the same measures were 5.82 and below 4.08.
For `Nc1nccc(-n2ccc3ccc(O)cc32)n1`, in that order: 5.48 and 5.30.
As to `Nc1nccc(-n2cc(-c3cccnc3Cl)c3cnccc32)n1`, the results for the pIC50 in data set [1], in data set [3] and in data set [6] were 6.07, 8.15 and 6.51, respectively. In addition, in data set [2], the Ratio IC50 was found to be 44. The values for the microsomal CLint in data set [4] and in data set [5] were 72 µL/min/mg and 21 µL/min/mg, respectively.
With `Nc1nccc(-n2ccc3cccnc32)n1`, the results for the pIC50 in data set [1], in data set [3] and in data set [6] were below 4.30, 4.57 and 4.38, respectively. For the same compound, the results for the microsomal CLint in data set [4] and in data set [5] were 282 µL/min/mg and 338 µL/min/mg, respectively.
Consider `N#Cc1ccc2ccn(-c3ccnc(N)n3)c2c1`, for which the negative-log IC50 (pIC50) in data set [1] was 5.30; in data set [3], 7.12; in data set [6], 4.78. For the same compound, the Ratio IC50 in data set [2] was 220. In addition, the figures for the microsomal CLint in data set [4] and in data set [5] were 124 µL/min/mg and 430 µL/min/mg, respectively.
In the case of `N#Cc1ccc2ccn(-c3cccc(N)n3)c2c1`, the pIC50 in data set [3] was 4.98; in data set [6], 4.35.
Consider `C#Cc1ccc2ccn(-c3ccnc(N)n3)c2c1`, for which the pIC50 in data set [3] is 6.12; in data set [6] it was 5.00.
Turning to `Nc1nccc(-n2ccc3ccncc32)n1`, the pIC50 in data set [3] is 6.03; in data set [6] it was 4.35. Further, the microsomal CLint is 64 µL/min/mg in data set [4] and 134 µL/min/mg in data set [5].
On to `N#Cc1ccc2c(ccn2-c2ccnc(N)n2)c1`, for which the values for the pIC50 in data set [3] and in data set [6] were 5.07 and below 4.54, respectively.
For `Nc1nccc(-n2cc(-c3ccoc3)c3cnccc32)n1` the same measures were 6.92 and 7.00.
For `N#Cc1ccc2ccn(-c3cc(N)ncn3)c2c1`, in that order: 5.57 and below 4.08.
With `Nc1nccc(-n2cc(-c3cc[nH]n3)c3cnccc32)n1`, the results for the pIC50 in data set [3] and in data set [6] were 6.24 and 6.26, respectively.
For `Nc1nccc(-n2ccc3ccc(Br)cc32)n1` the same measures were 6.46 and 5.09.
As for `Nc1nccc(-n2ccc3cnc(Cl)cc32)n1`, the pIC50 in data set [1] was below 4.30; in data set [3], 6.44; in data set [6], 4.42. For the same compound, the Ratio IC50 in data set [2] is above 100. For the same compound, the results for the microsomal CLint in data set [4] and in data set [5] were 134 µL/min/mg and 104 µL/min/mg, respectively.
For the compound `Nc1nccc(-n2ccc3ccc(F)cc32)n1`, the values for the pIC50 in data set [3] and in data set [6] were 6.81 and 4.47, respectively.
